Reference: a melting point compilation (Tetko et al.; mined from patent text by program, amines drawn as free bases though some values may be those of a salt)

Row | Structure (SMILES) | melting point [°C]
1 | OCc1cc(-c2ccccc2)no1 | 48 to 50
2 | COc1cc(O)c([N+](=O)[O-])cc1C(F)(F)F | 77 to 78
3 | Cc1ccc(S(=O)(=O)N2CCC(Sc3ccc(Cl)cc3)CC2)cc1 | 112 to 114
4 | CC(=O)N(C)C(=O)ON=C1SCC(=O)NC1(C)C | 218 to 220
5 | Clc1ccc2c(c1)N=C1C=CC=CN1CO2 | 175 to 177
6 | O=c1[nH]c(C(F)(F)F)c(Br)c(=O)[nH]1 | 236 to 240
7 | CC(C)(C)OC(=O)NCCC(=O)c1c(Cl)cccc1[Si](C)(C)C | 51 to 52
8 | COc1ccccc1-c1cc(C(F)(F)F)nn1-c1ccc(S(N)(=O)=O)c(F)c1 | 159 to 160
9 | CC(=O)Nc1cccc(-c2ccc(OC[C@H](O)CCc3cccnc3)cc2)c1 | 110 to 113
10 | CC1CC2=CC(=O)CCC2(C)C2C(=O)CC3(C)C(=O)CCC3C12 (stereo not given) | 235 to 237
11 | CN1C(=O)n2c(nc3ccccc32)NC12CCCC2 | 180 to 182
12 | Nc1nc(-c2cc(Cl)ccc2Cl)nc(N2CCS(=O)CC2)n1 | 267 to 269
13 | O=c1c(CCO)c(O)c2cccnc2n1-c1cccc([N+](=O)[O-])c1 | 244 to 245
14 | CN(C)c1ccc2[nH]c3c([N+](=O)[O-])ccc(Cl)c3c(=O)c2c1 | > 300
15 | Cc1nc2[nH]c(=O)ccc2c(C)c1C | 170 to 175
16 | c1ccc(-c2ccc(Nc3nccc(-c4ccc(-c5ccc(N(c6ccccc6)c6ccccc6)cc5)cc4)n3)cc2)cc1 | > 300
17 | CN(C(=O)CN(C(=O)CNC(=O)OC(C)(C)C)c1ccccc1O)c1ccccc1 | 185 to 188
18 | O=C(O)CCC(Cc1ccccc1Cl)(C(=O)C=Cc1ccc(Cl)cc1)c1ccccc1 (stereo not given) | 184 to 187
19 | COc1ccc2cc3c(c(-c4ccc(OC(F)(F)F)cc4)c2c1)C(=O)NC3=O | 282 to 284
20 | CNC(=O)Oc1cc(C)c(NC(=O)C(F)(F)Cl)cc1C | 187 to 188
21 | O=Cc1ccc(OCCN2C(=O)COc3ccccc32)cc1 | 75 to 78
22 | O=C(Nc1ccc(C(=O)N2CCc3cn[nH]c3-c3ncccc32)cc1)c1ccccc1-c1ccccc1 | 250 to 251
23 | Cc1cc(=O)n(-c2cc(N)c(Cl)cc2F)c(=O)n1C | > 220
24 | Cc1cc(-c2cccc(-c3ccc(CCCNC4CCc5ccccc5C4)cc3)n2)c(C)[nH]1 (stereo not given) | 120 to 130
25 | COC(=O)C1=C(C)NC(C)=C(C(=O)OC)C1c1ccccc1F | 206 to 208
26 | O=C(O)c1ccc(Br)cc1C(=O)c1ccccc1 | 185 to 187
27 | CCCCC(CC)COc1cc(-c2ccccn2)nc(-c2ccccn2)c1 (stereo not given) | 58.5
28 | CCc1nc2c(C)cc(C)nc2n1Cc1ccc(-c2ccccc2-c2nc(=O)o[nH]2)cc1 | 149 to 152
29 | Cn1nc(C(F)(F)F)nc1NC(=O)CCCOc1cccc(CN2CCCCC2)c1 | 96 to 97
30 | COc1c([N+](=O)[O-])ccc(N)c1Cl | 118 to 123

Further lines, results first:

Row | melting point [°C] | Structure (SMILES)
31 | 144 to 145 | O=C(C=Cc1cccc(Br)c1)Nc1ccc(CN2CCCCC2)cc1
32 | 115 | CN(C)c1ccc(-c2c(N3CCCC3C(=O)OC(C)(C)C)c(=O)c2=O)cc1 (stereo not given)
33 | 162 to 164 | CCCCc1oc2ccccc2c1C(=O)NCc1ccc2c(-c3ccc(C(C)(C)C)cc3)c(OCC#N)ccc2c1
34 | 217 to 219 | CC(O)c1cc(F)ccc1Oc1nc2ccc(NC(=O)Nc3cccc([N+](=O)[O-])c3)cc2cc1Cc1ccccc1 (stereo not given)
35 | 219 to 221 | O=C1c2c(O)ccc(O)c2C(=O)c2c(NCCN3CCCCC3)ccc(NCCN3CCCCC3)c21
36 | 230 to 232 | CC(C)(C)c1ccc(-c2cc(N3CCOCC3)cc(=O)o2)cc1
37 | 78 to 80 | Fc1ccc2c(C3CCN(CCCOc4ccccc4)CC3)noc2c1
38 | 116 to 119 | COc1ccc(C=Cc2nc3c(OC)c(C)c(C)c(OC)c3[nH]2)cc1OC
39 | 163 to 164 | O=C(O)CCC(=NO)c1ccc(-c2ccc(Br)cc2F)cc1
40 | 179 to 181 | O=C(O)C1CC(=O)N(Cc2ccccc2)C1c1c(Cl)cccc1Cl (stereo not given)
41 | 93 to 95 | COC(=O)c1cscc1N=C=S
42 | 193 to 195 | Cc1c(CN(O)Cc2ccccc2)c(C)c(CN(O)Cc2ccccc2)c(C)c1CN(O)Cc1ccccc1
43 | 184 | COC(=O)c1nn(Cc2cccc(OC)c2)c2c1CCc1cc(OCc3cncnc3)ccc1-2
44 | 144 to 145 | O=Cc1cc2c(cc1C=O)[C@H](CO)OC2=O
45 | 222 | O=C(Nc1ccc2ccc(Cl)nc2n1)c1ccccc1F
46 | 198 to 200 | N#Cc1ccc2oc3c(c(=O)c2c1)CCCC3
47 | 185 to 187 | Cc1cc2c(nc(C)n2CCc2ccccc2)c(N)n1
48 | 180 to 181 | CN1CCC(Cn2nc(-c3c(-c4ccccc4)nn4ccccc34)ccc2=O)CC1
49 | 160 | O=C(O)CCc1cc2cc(Cl)ccc2n1S(=O)(=O)c1ccc2ccccc2c1
50 | 229 to 230 | CC(C)CC(CP(=O)(O)CNCCc1ccccc1)C(=O)N(c1ccc(-c2ccccc2)cc1)[C@@H](C)C(=O)O (stereo not given in full)

Row | melting point [°C] | Structure (SMILES)
51 | 204 | CCCCOc1ccc(S(=O)(=O)C2(C(=O)O)CCN(CCOc3ccccc3)CC2)cc1
52 | 159 to 161 | Cc1nc(-c2ccccc2)cc(-c2cccc([N+](=O)[O-])c2)c1NC(=O)NCCN(C)C
53 | 128 to 130 | COc1cc(N)c(Cl)cc1C(=O)NCC1CCN(CCCCCCC(=O)c2ccccc2)CC1
54 | 225 to 228 | O=C(O)c1cccc(Nc2nc(Oc3ccccc3)nc(Oc3cccc([N+](=O)[O-])c3)n2)c1
55 | 126 | CC(=O)OCc1csc(-c2nc3n(c2-c2ccncc2)CCC3)c1
56 | 79 to 80 | CCN1CCN(CC)c2cc([N+](=O)[O-])ccc2C1=O
57 | 196 to 198 | O=C(CNC(=O)c1ccc([N+](=O)[O-])c(I(=O)=O)c1)OCc1ccccc1
58 | 119 | CN(C(=O)Nc1ccc(Cl)c(Cl)c1)S(=O)(=O)CCl
59 | 91 to 94 | COC(=O)c1ccccc1NC(=O)NCC1(c2ccccc2)CCCCC1
60 | 156 | CCc1c(OC)cc(C2CNC(=O)C2)cc1OC (stereo not given)
61 | 211 | CC(=O)OCC(=O)C1(OC(C)=O)C(C)CC2C3CC(Cl)C4=CC(=O)C=CC4(C)C34OC4CC21C (stereo not given)
62 | 252 to 253 | C[C@@H]1O[C@](C#CC2CC2)(C(F)(F)F)c2c(ccc3c2OCO3)NC1=O (relative stereo)
63 | 150 to 153 | CN(C)S(=O)(=O)c1cc2c(O)cccc2o1
64 | 147 to 151 | OC(Cc1ccccn1)(c1ccccc1)c1ccccc1
65 | 143 to 145 | Cc1nc(Cc2ccccc2N)n[nH]1
66 | 203 to 204 | COc1ccc(C(=O)NCc2ccc(Br)cc2F)c(OCC(=O)O)c1
67 | 159 to 160 | CS(=O)c1ccc(Oc2ccc([N+](=O)[O-])cc2C#N)cc1 (stereo not given)
68 | 201 to 202 | COC(=O)CCc1ccccc1-c1[nH]c2cccc3c2c1CCNC3=O
69 | 124 to 125 | CCc1c(Cl)nc(Cl)nc1N(C=O)c1cc(C)cc(C)c1
70 | 202 to 203 | O=C(CCO)Nc1cccc(-c2ccc3c(c2)C(c2ccc(Cl)cc2Cl)CC3)c1 (stereo not given)
